Results taken from ChEMBL document CHEMBL4665731, “Antifungal trichothecene sesquiterpenes obtained from the culture broth of marine-derived Trichoderma cf. brevicompactum and their structure-activity relationship” (2020).
≈ marks a conversion by molar mass, not a printed value.

Legend:
Format in all cases: functional
Rhizopus arrhizus = assay: Antifungal activity against Rhizopus oryzae NBRC 31005 assessed as reduction in fungal growth incubated for 24 hrs by CLSI broth microdilution method
Cryptococcus neoformans = assay: Antifungal activity against Cryptococcus neoformans ATCC 14116 assessed as reduction in fungal growth incubated for 72 hrs by CLSI broth microdilution method
Candida albicans = assay: Antifungal activity against Candida albicans NBRC1594 assessed as reduction in fungal growth incubated for 24 hrs by CLSI broth microdilution method
Aspergillus fumigatus = assay: Antifungal activity against Aspergillus fumigatus NBRC 96918 assessed as reduction in fungal growth incubated for 48 hrs by CLSI broth microdilution method

C[C@@H]1[C@H](O)[C@@H](C)/C=C/C=C/C=C/C=C/C=C/C=C/C=C/[C@H](O[C@@H]2O[C@H](C)[C@@H](O)[C@H](N)[C@@H]2O)C[C@@H]2O[C@](O)(C[C@@H](O)C[C@@H](O)[C@H](O)CC[C@@H](O)C[C@@H](O)CC(=O)O[C@H]1C)C[C@H](O)[C@H]2C(=O)O [AMPHOTERICIN B]
MIC90 (Rhizopus arrhizus): 1 µg/mL (≈ 1.08 µM) | MIC90 (Cryptococcus neoformans): 1 µg/mL (≈ 1.08 µM) | MIC90 (Candida albicans): 0.5 µg/mL (≈ 0.541 µM) | MIC90 (Aspergillus fumigatus): 2 µg/mL (≈ 2.16 µM)
